The supplement of paper PMC8671470

These compounds were tested on LAMA-84 (assay: cell viability (% survival relative to DMSO control, bortezomib = 0%); higher = less cytotoxic). Settings: 1000 nM; 72 h.
Method in brief: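 Percent survival figures are means of duplicate wells. They were obtained by CellTiter-Glo luminescence after 10 AML and 5 CML cell lines spent 72 h at 37 °C with 5% CO2 in 384-well plates with compounds at 1, 10, 100, 1000 or 10000 nM. Vehicle was set to 100% and a 10 µM positive control to 0%.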
With `Cc1c(-c2ccc(-c3ccccc3F)cc2)nc2ccc(F)cc2c1C(=O)O` [Brequinar] the cell viability was 102%.
`O=C1O/C(=C/Br)CCC1c1cccc2ccccc12` (stereo unspecified) [Bromoenol Lactone] showed a cell viability of 95.9%.
`O=C(O)CCCCC(CCSCc1ccccc1)SCc1ccccc1` (stereo unspecified) [CPI-613] was tested, and the cell viability was 96.8%.
With `CC(C)c1cc2c(c(O)c1O)[C@@]1(C(=O)O)CCCC(C)(C)[C@@H]1CC2` [Carnosic acid] the cell viability was 91.1%.
For `CCN(CC)CCCC(C)Nc1ccnc2cc(Cl)ccc12` (stereo unspecified) [Chloroquine], the cell viability was 101%.
`Nc1nc(Cl)nc2c1ncn2[C@H]1C[C@H](O)[C@@H](CO)O1` [Cladribine] gave a cell viability of 5.53%.
`NCCCC(N)(C(=O)O)C(F)F` (stereo unspecified) [Difluoromethylornithine] was tested, and the cell viability was 102%.

Same assay, conditions: 10000 nM; 72 h
In the case of `COc1ccc(S(=O)(=O)N2CCN(S(=O)(=O)c3ccc4c(c3)OCCO4)CC2)cc1` [BML283], the cell viability is reported as 106%.
Work on `O=c1cc(-c2ccccc2)oc2cc(O)c(O)c(O)c12` [Baicalein] yielded a cell viability of 75%.
`COC(=O)[C@]12CCC(C)(C)C[C@H]1[C@H]1C(=O)C=C3[C@@]4(C)C=C(C#N)C(=O)C(C)(C)[C@@H]4CC[C@@]3(C)[C@]1(C)CC2` [Bardoxolone methyl] gave a cell viability of 86%.
Compound `O=c1oc2c(O)c(O)cc3c(=O)oc4c(O)c(O)cc1c4c23` [Benzoaric Acid] has a cell viability of 105%.
`Cc1c(-c2ccc(-c3ccccc3F)cc2)nc2ccc(F)cc2c1C(=O)O` [Brequinar] was tested, and the cell viability was 47.4%.
Compound `O=C1O/C(=C/Br)CCC1c1cccc2ccccc12` (stereo unspecified) [Bromoenol Lactone] has a cell viability of 74%.
`O=C(O)CCCCC(CCSCc1ccccc1)SCc1ccccc1` (stereo unspecified) [CPI-613] gave a cell viability of 97.5%.
For `CC(C)c1cc2c(c(O)c1O)[C@@]1(C(=O)O)CCCC(C)(C)[C@@H]1CC2` [Carnosic acid], the cell viability was 96.6%.
In the case of `CCN(CC)CCCC(C)Nc1ccnc2cc(Cl)ccc12` (stereo unspecified) [Chloroquine], the cell viability is reported as 99.1%.
`Nc1nc(Cl)nc2c1ncn2[C@H]1C[C@H](O)[C@@H](CO)O1` [Cladribine] gave a cell viability of 1.72%.
In the case of `NCCCC(N)(C(=O)O)C(F)F` (stereo unspecified) [Difluoromethylornithine], the cell viability is reported as 110%.

What follows are compounds tested on KCL-22 (assay: not given). Settings: 72 h.
Method in brief: (§1)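 Fifteen myeloid leukaemia lines in RPMI 1640 were treated for 72 h at 37 °C and 5% CO2 with five tenfold doses from 1 to 10,000 nM, in duplicate. ATP luminescence was normalised to vehicle and to a positive control at 10 µM, then fitted with a four-parameter log-logistic model. The IC50 came from these fits.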
With `COc1ccc(S(=O)(=O)N2CCN(S(=O)(=O)c3ccc4c(c3)OCCO4)CC2)cc1` [BML283] the “IC50 (cell viability)” value was > 10 µM.
In the case of `O=c1cc(-c2ccccc2)oc2cc(O)c(O)c(O)c12` [Baicalein], the “IC50 (cell viability)” value is reported as > 10 µM.
In the case of `COC(=O)[C@]12CCC(C)(C)C[C@H]1[C@H]1C(=O)C=C3[C@@]4(C)C=C(C#N)C(=O)C(C)(C)[C@@H]4CC[C@@]3(C)[C@]1(C)CC2` [Bardoxolone methyl], the “IC50 (cell viability)” value is reported as 1.14 µM.
In the case of `O=c1oc2c(O)c(O)cc3c(=O)oc4c(O)c(O)cc1c4c23` [Benzoaric Acid], the “IC50 (cell viability)” value is reported as > 10 µM.
`Cc1c(-c2ccc(-c3ccccc3F)cc2)nc2ccc(F)cc2c1C(=O)O` [Brequinar] was tested, and the “IC50 (cell viability)” value was 0.94 µM.
With `O=C1O/C(=C/Br)CCC1c1cccc2ccccc12` (stereo unspecified) [Bromoenol Lactone] the “IC50 (cell viability)” value was 7.07 µM.
`O=C(O)CCCCC(CCSCc1ccccc1)SCc1ccccc1` (stereo unspecified) [CPI-613] was tested, and the “IC50 (cell viability)” value was > 10 µM.
In the case of `CC(C)c1cc2c(c(O)c1O)[C@@]1(C(=O)O)CCCC(C)(C)[C@@H]1CC2` [Carnosic acid], the “IC50 (cell viability)” value is reported as > 10 µM.
`CCN(CC)CCCC(C)Nc1ccnc2cc(Cl)ccc12` (stereo unspecified) [Chloroquine] was tested, and the “IC50 (cell viability)” value was > 10 µM.
For `Nc1nc(Cl)nc2c1ncn2[C@H]1C[C@H](O)[C@@H](CO)O1` [Cladribine], the “IC50 (cell viability)” value was 0.142 µM.
With `NCCCC(N)(C(=O)O)C(F)F` (stereo unspecified) [Difluoromethylornithine] the “IC50 (cell viability)” value was > 10 µM.

These compounds were tested on MV4-11 (assay: not given). Settings: 72 h.
Method in brief: as §1
In the case of `COc1ccc(S(=O)(=O)N2CCN(S(=O)(=O)c3ccc4c(c3)OCCO4)CC2)cc1` [BML283], the “IC50 (cell viability)” value is reported as > 10 µM.
With `O=c1cc(-c2ccccc2)oc2cc(O)c(O)c(O)c12` [Baicalein] the “IC50 (cell viability)” value was > 10 µM.
For `COC(=O)[C@]12CCC(C)(C)C[C@H]1[C@H]1C(=O)C=C3[C@@]4(C)C=C(C#N)C(=O)C(C)(C)[C@@H]4CC[C@@]3(C)[C@]1(C)CC2` [Bardoxolone methyl], the “IC50 (cell viability)” value was > 10 µM.
`O=c1oc2c(O)c(O)cc3c(=O)oc4c(O)c(O)cc1c4c23` [Benzoaric Acid] was tested, and the “IC50 (cell viability)” value was > 10 µM.
In the case of `Cc1c(-c2ccc(-c3ccccc3F)cc2)nc2ccc(F)cc2c1C(=O)O` [Brequinar], the “IC50 (cell viability)” value is reported as 7.76 µM.
`O=C1O/C(=C/Br)CCC1c1cccc2ccccc12` (stereo unspecified) [Bromoenol Lactone] was tested, and the “IC50 (cell viability)” value was 5.73 µM.
With `O=C(O)CCCCC(CCSCc1ccccc1)SCc1ccccc1` (stereo unspecified) [CPI-613] the “IC50 (cell viability)” value was > 10 µM.
In the case of `CC(C)c1cc2c(c(O)c1O)[C@@]1(C(=O)O)CCCC(C)(C)[C@@H]1CC2` [Carnosic acid], the “IC50 (cell viability)” value is reported as > 10 µM.
For `CCN(CC)CCCC(C)Nc1ccnc2cc(Cl)ccc12` (stereo unspecified) [Chloroquine], the “IC50 (cell viability)” value was > 10 µM.
`Nc1nc(Cl)nc2c1ncn2[C@H]1C[C@H](O)[C@@H](CO)O1` [Cladribine] was tested, and the “IC50 (cell viability)” value was 0.0202 µM.
`NCCCC(N)(C(=O)O)C(F)F` (stereo unspecified) [Difluoromethylornithine] was tested, and the “IC50 (cell viability)” value was > 10 µM.

These compounds were tested on BV-173 (assay: not given). Settings: 72 h.
Method in brief: as §1
With `COc1ccc(S(=O)(=O)N2CCN(S(=O)(=O)c3ccc4c(c3)OCCO4)CC2)cc1` [BML283] the “IC50 (cell viability)” value was > 10 µM.
For `O=c1cc(-c2ccccc2)oc2cc(O)c(O)c(O)c12` [Baicalein], the “IC50 (cell viability)” value was > 10 µM.
In the case of `COC(=O)[C@]12CCC(C)(C)C[C@H]1[C@H]1C(=O)C=C3[C@@]4(C)C=C(C#N)C(=O)C(C)(C)[C@@H]4CC[C@@]3(C)[C@]1(C)CC2` [Bardoxolone methyl], the “IC50 (cell viability)” value is reported as 1.22 µM.
`O=c1oc2c(O)c(O)cc3c(=O)oc4c(O)c(O)cc1c4c23` [Benzoaric Acid] was tested, and the “IC50 (cell viability)” value was > 10 µM.
With `Cc1c(-c2ccc(-c3ccccc3F)cc2)nc2ccc(F)cc2c1C(=O)O` [Brequinar] the “IC50 (cell viability)” value was 7.19 µM.
With `O=C1O/C(=C/Br)CCC1c1cccc2ccccc12` (stereo unspecified) [Bromoenol Lactone] the “IC50 (cell viability)” value was 4.15 µM.
For `O=C(O)CCCCC(CCSCc1ccccc1)SCc1ccccc1` (stereo unspecified) [CPI-613], the “IC50 (cell viability)” value was > 10 µM.
For `CC(C)c1cc2c(c(O)c1O)[C@@]1(C(=O)O)CCCC(C)(C)[C@@H]1CC2` [Carnosic acid], the “IC50 (cell viability)” value was 5.01 µM.
For `CCN(CC)CCCC(C)Nc1ccnc2cc(Cl)ccc12` (stereo unspecified) [Chloroquine], the “IC50 (cell viability)” value was > 10 µM.
For `Nc1nc(Cl)nc2c1ncn2[C@H]1C[C@H](O)[C@@H](CO)O1` [Cladribine], the “IC50 (cell viability)” value was 0.00438 µM.
In the case of `NCCCC(N)(C(=O)O)C(F)F` (stereo unspecified) [Difluoromethylornithine], the “IC50 (cell viability)” value is reported as > 10 µM.

These compounds were tested on HL-60 (assay: not given). Settings: 72 h.
Method in brief: as §1
`COc1ccc(S(=O)(=O)N2CCN(S(=O)(=O)c3ccc4c(c3)OCCO4)CC2)cc1` [BML283] was tested, and the “IC50 (cell viability)” value was > 10 µM.
`O=c1cc(-c2ccccc2)oc2cc(O)c(O)c(O)c12` [Baicalein] was tested, and the “IC50 (cell viability)” value was 4.39 µM.
`COC(=O)[C@]12CCC(C)(C)C[C@H]1[C@H]1C(=O)C=C3[C@@]4(C)C=C(C#N)C(=O)C(C)(C)[C@@H]4CC[C@@]3(C)[C@]1(C)CC2` [Bardoxolone methyl] was tested, and the “IC50 (cell viability)” value was > 10 µM.
`O=c1oc2c(O)c(O)cc3c(=O)oc4c(O)c(O)cc1c4c23` [Benzoaric Acid] was tested, and the “IC50 (cell viability)” value was > 10 µM.
With `Cc1c(-c2ccc(-c3ccccc3F)cc2)nc2ccc(F)cc2c1C(=O)O` [Brequinar] the “IC50 (cell viability)” value was 6.09 µM.
With `O=C1O/C(=C/Br)CCC1c1cccc2ccccc12` (stereo unspecified) [Bromoenol Lactone] the “IC50 (cell viability)” value was > 10 µM.
In the case of `O=C(O)CCCCC(CCSCc1ccccc1)SCc1ccccc1` (stereo unspecified) [CPI-613], the “IC50 (cell viability)” value is reported as > 10 µM.
`CC(C)c1cc2c(c(O)c1O)[C@@]1(C(=O)O)CCCC(C)(C)[C@@H]1CC2` [Carnosic acid] was tested, and the “IC50 (cell viability)” value was > 10 µM.
In the case of `CCN(CC)CCCC(C)Nc1ccnc2cc(Cl)ccc12` (stereo unspecified) [Chloroquine], the “IC50 (cell viability)” value is reported as > 10 µM.
With `Nc1nc(Cl)nc2c1ncn2[C@H]1C[C@H](O)[C@@H](CO)O1` [Cladribine] the “IC50 (cell viability)” value was 0.0471 µM.
